From patent US12157746B2, “Tetrahydro-1H-pyrazino[2,1-a]isoindolylquinoline compounds for the treatment of autoimmune disease” (F. HOFFMANN-LA ROCHE AG, priority 2018, dated 2024)

Molecular target: T1, human TLR7 (Homo sapiens, UniProt Q9NYK1)
T1 sequence (Q9NYK1 27-1049): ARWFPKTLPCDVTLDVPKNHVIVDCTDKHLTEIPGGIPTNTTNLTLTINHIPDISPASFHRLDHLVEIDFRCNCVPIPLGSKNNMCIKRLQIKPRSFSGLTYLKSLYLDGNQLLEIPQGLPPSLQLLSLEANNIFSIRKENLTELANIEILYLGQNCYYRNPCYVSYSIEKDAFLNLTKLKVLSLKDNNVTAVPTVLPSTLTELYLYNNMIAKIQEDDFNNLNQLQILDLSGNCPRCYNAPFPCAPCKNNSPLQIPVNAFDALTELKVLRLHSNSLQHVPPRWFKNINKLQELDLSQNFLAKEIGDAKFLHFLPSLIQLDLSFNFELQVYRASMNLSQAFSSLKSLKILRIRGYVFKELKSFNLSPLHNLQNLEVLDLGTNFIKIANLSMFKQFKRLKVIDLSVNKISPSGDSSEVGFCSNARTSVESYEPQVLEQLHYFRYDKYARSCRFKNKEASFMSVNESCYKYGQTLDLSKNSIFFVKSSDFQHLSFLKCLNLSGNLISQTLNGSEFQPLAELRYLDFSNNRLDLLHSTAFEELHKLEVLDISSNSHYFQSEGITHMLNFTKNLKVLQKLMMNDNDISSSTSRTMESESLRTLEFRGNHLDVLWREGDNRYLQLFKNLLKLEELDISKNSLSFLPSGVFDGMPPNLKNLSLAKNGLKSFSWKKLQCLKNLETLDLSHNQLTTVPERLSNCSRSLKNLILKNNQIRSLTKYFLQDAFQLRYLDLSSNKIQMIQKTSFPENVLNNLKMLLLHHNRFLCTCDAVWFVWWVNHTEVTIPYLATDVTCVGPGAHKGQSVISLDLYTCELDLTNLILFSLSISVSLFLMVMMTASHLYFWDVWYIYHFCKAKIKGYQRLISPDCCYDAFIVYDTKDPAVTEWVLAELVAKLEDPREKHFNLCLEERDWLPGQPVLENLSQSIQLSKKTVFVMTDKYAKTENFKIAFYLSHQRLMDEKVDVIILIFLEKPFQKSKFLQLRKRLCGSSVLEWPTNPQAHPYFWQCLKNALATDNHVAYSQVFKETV
Test: HEK293-Blue-hTLR-7 cells assay
Assay type: cell-based
Conditions: HEK293-Blue-hTLR7 cells, R848 stimulation, 20 hrs, SEAP reporter; read-out: HEK/hTLR7 IC50
Source text: HEK293-Blue-hTLR-7 Cells Assay:
A stable HEK293-Blue-hTLR-7 cell line was purchased from InvivoGen (Cat. #: hkb-htlr7, San Diego, California, USA). These cells were originally designed for studying the stimulation of human TLR7 by monitoring the activation of NF-κB. A SEAP (secreted embryonic alkaline phosphatase) reporter gene was placed under the control of the IFN-β minimal promoter fused to five NF-κB and AP-1-binding sites. The SEAP was induced by activating NF-κB and AP-1 via stimulating HEK-Blue hTLR7 cells with TLR7 ligands. Therefore the reporter expression was declined by TLR7 antagonist under the stimulation of a ligand, such as R848 (Resiquimod), for incubation of 20 hrs. The cell culture supernatant SEAP reporter activity was determined using QUANTI-Blue™ kit (Cat. #: rep-qb1, Invivogen, San Diego, Ca. USA) at a wavelength of 640 nm, a detection medium that turns purple or blue in the presence of alkaline phosphatase.
HEK293-Blue-hTLR7 cells were incubated at a density of 250,000˜450,000 cells/mL in a volume of 170 μL in a 96-well plate in Dulbecco's Modified Eagle's medium (DMEM) containing 4.5 g/L glucose, 50 U/mL penicillin, […], […], 2 mM L-glutamine, 10% (v/v) heat-inactivated fetal bovine serum with addition of 20 μL test compound 1n a serial dilution in the presence of final DMSO at 1% and 10 μL of 20 uM R848 in above DMEM, perform incubation under 37° C. in a CO2 incubator for 20 hrs. Then 20 μL of the supernatant from each well was incubated with 180 μL Quanti-blue substrate solution at 37° C. for 2 hrs and the absorbance was read at 620-655 nm using a spectrophotometer. The signaling pathway that TLR7 activation leads to downstream NF-κB activation has been widely accepted, and therefore similar reporter assay was modified for evaluating TLR7 antagonist.

IC50 [nM] | Compound
4.5 | C[C@@H]1CN(c2ccc(C#N)c3ncccc23)C[C@@H]2c3ccc(N4C[C@@H](N)[C@](C)(O)C4)cc3CN12 [Example 45, 5-[(4R,10bS)-4-methyl-8-[trans-(3R,4R)-4-amino-3-hydroxy-3-methyl-pyrrolidin-1-yl]-3,4,6,10b-tetrahydro-1H-pyrazino[2,1-a]isoindol-2-yl]quinoline-8-carbonitrile]
3.5 | C[C@@H]1CN(c2ccc(C#N)c3ncccc23)C[C@@H]2c3ccc(N4C[C@@H](N)[C@](C)(O)C4)cc3CN12 [Example 45A, 5-[(4R,10bS)-8-[(3R,4R)-4-amino-3-hydroxy-3-methyl-pyrrolidin-1-yl]-4-methyl-3,4,6,10b-tetrahydro-1H-pyrazino[2,1-a]isoindol-2-yl]quinoline-8-carbonitrile]
3.3 | C[C@@H]1CN(c2ccc(C#N)c3ncccc23)C[C@@H]2c3ccc(N4C[C@H](N)[C@@](C)(O)C4)cc3CN12 [Example 45B, 5-[(4R,10bS)-8-[(3S,4S)-4-amino-3-hydroxy-3-methyl-pyrrolidin-1-yl]-4-methyl-3,4,6,10b-tetrahydro-1H-pyrazino[2,1-a]isoindol-2-yl]quinoline-8-carbonitrile]
15.6 | C[C@@H]1CN(c2ccc(C#N)c3ncccc23)C[C@@H]2c3ccc(N4C[C@@H](F)[C@@H](N)C4)cc3CN12 [Example 46, 5-[(4R,10bS)-8-[(3S,4R)-3-amino-4-fluoro-pyrrolidin-1-yl]-4-methyl-3,4,6,10b-tetrahydro-1H-pyrazino[2,1-a]isoindol-2-yl]quinoline-8-carbonitrile]
4.8 | C[C@@H]1CN(c2ccc(C#N)c3ncccc23)C[C@@H]2c3ccc(N4C[C@@H](N)[C@@H](F)C4)cc3CN12 [Example 47, 5-[(4R,10bS)-8-[(3R,4S)-3-amino-4-fluoro-pyrrolidin-1-yl]-4-methyl-3,4,6,10b-tetrahydro-1H-pyrazino[2,1-a]isoindol-2-yl]quinoline-8-carbonitrile]
5.8 | C[C@@H]1CN(c2ccc(C#N)c3ncccc23)C[C@@H]2c3ccc(N4C[C@@H](N)[C@H](F)C4)cc3CN12 [Example 48, 5-[(4R,10bS)-8-[(3R,4R)-3-amino-4-fluoro-pyrrolidin-1-yl]-4-methyl-3,4,6,10b-tetrahydro-1H-pyrazino[2,1-a]isoindol-2-yl]quinoline-8-carbonitrile]
4.5 | C[C@@H]1CN(c2ccc(C#N)c3ncccc23)C[C@@H]2c3ccc(N4C[C@H](N)[C@@H](F)C4)cc3CN12 [Example 49, 5-[(4R,10bS)-8-[(3S,4S)-3-amino-4-fluoro-pyrrolidin-1-yl]-4-methyl-3,4,6,10b-tetrahydro-1H-pyrazino[2,1-a]isoindol-2-yl]quinoline-8-carbonitrile]
1.4 | C[C@@H]1CN(c2ccc(C#N)c3ncccc23)C[C@@H]2c3ccc(N4CCC(C)(N)CC4)cc3CN12 [Example 51, 5-[(4R,10bS)-8-(4-amino-4-methyl-1-piperidyl)-4-methyl-3,4,6,10b-tetrahydro-1H-pyrazino[2,1-a]isoindol-2-yl]quinoline-8-carbonitrile]
8.5 | C[C@@H]1CN(c2ccc(C#N)c3ncccc23)C[C@@H]2c3ccc(N4CCOC5CNCC54)cc3CN12 (stereo partly drawn) [Example 52, 5-[(4R,10bS)-8-(3,4a,5,6,7,7a-hexahydro-2H-pyrrolo[3,4-b][1,4]oxazin-4-yl)-4-methyl-3,4,6,10b-tetrahydro-1H-pyrazino[2,1-a]isoindol-2-yl]quinoline-8-carbonitrile]
3.9 | C[C@@H]1CN(c2ccc(C#N)c3ncccc23)C[C@@H]2c3ccc(N4CCNC[C@H](O)C4)cc3CN12 [Example 53A, 5-[(4R,10bS)-8-[(6S)-6-hydroxy-1,4-diazepan-1-yl]-4-methyl-3,4,6,10b-tetrahydro-1H-pyrazino[2,1-a]isoindol-2-yl]quinoline-8-carbonitrile]
8.9 | C[C@@H]1CN(c2ccc(C#N)c3ncccc23)C[C@@H]2c3ccc(N4CCNC[C@@H](O)C4)cc3CN12 [Example 53B, 5-[(4R,10bS)-8-[(6R)-6-hydroxy-1,4-diazepan-1-yl]-4-methyl-3,4,6,10b-tetrahydro-1H-pyrazino[2,1-a]isoindol-2-yl]quinoline-8-carbonitrile]
4 | C[C@@H]1CN(c2ccc(C#N)c3ncccc23)C[C@@H]2c3ccc(N4CCOCC(N)C4)cc3CN12 (stereo partly drawn) [Example 54, 5-[(4R,10bS)-8-(6-amino-1,4-oxazepan-4-yl)-4-methyl-3,4,6,10b-tetrahydro-1H-pyrazino[2,1-a]isoindol-2-yl]quinoline-8-carbonitrile]
4.5 | C[C@@H]1CN(c2ccc(C#N)c3ncccc23)C[C@@H]2c3ccc(N4CCOC[C@H](N)C4)cc3CN12 [Example 54A, 5-[(4R,10bS)-8-[(6R)-6-amino-1,4-oxazepan-4-yl]-4-methyl-3,4,6,10b-tetrahydro-1H-pyrazino[2,1-a]isoindol-2-yl]quinoline-8-carbonitrile]
5.7 | C[C@@H]1CN(c2ccc(C#N)c3ncccc23)C[C@@H]2c3ccc(N4CCOC[C@@H](N)C4)cc3CN12 [Example 54B, 5-[(4R,10bS)-8-[(6S)-6-amino-1,4-oxazepan-4-yl]-4-methyl-3,4,6,10b-tetrahydro-1H-pyrazino[2,1-a]isoindol-2-yl]quinoline-8-carbonitrile]
6.5 | C[C@@H]1CN(c2ccc(C#N)c3ncccc23)C[C@@H]2c3ccc(N4CCNCC(C)(O)C4)cc3CN12 (stereo partly drawn) [Example 55, 5-[(4R,10S)-8-(6-hydroxy-6-methyl-1,4-diazepan-1-yl)-4-methyl-3,4,6,10b-tetrahydro-1H-pyrazino[2,1-a]isoindol-2-yl]quinoline-8-carbonitrile]
7.7 | C[C@@H]1CN(c2ccc(C#N)c3ncccc23)C[C@@H]2c3ccc(N4CCNC[C@](C)(O)C4)cc3CN12 [Example 55A, 5-[(4R,10bS)-8-[(6S)-6-hydroxy-6-methyl-1,4-diazepan-1-yl]-4-methyl-3,4,6,10b-tetrahydro-1H-pyrazino[2,1-a]isoindol-2-yl]quinoline-8-carbonitrile]
16.1 | C[C@@H]1CN(c2ccc(C#N)c3ncccc23)C[C@@H]2c3ccc(N4CCNC[C@@](C)(O)C4)cc3CN12 [Example 55B, 5-[(4R,10bS)-8-[(6R)-6-hydroxy-6-methyl-1,4-diazepan-1-yl]-4-methyl-3,4,6,10b-tetrahydro-1H-pyrazino[2,1-a]isoindol-2-yl]quinoline-8-carbonitrile]
6.9 | C[C@@H]1CN(c2ccc(C#N)c3ncccc23)C[C@@H]2c3ccc(NC4CNCCOC4)cc3CN12 (stereo partly drawn) [Example 56, 5-[(4R,10bS)-4-methyl-8-(1,4-oxazepan-6-ylamino)-3,4,6,10b-tetrahydro-1H-pyrazino[2,1-a]isoindol-2-yl]quinoline-8-carbonitrile]
1.7 | [2H]c1ccc2c(N3C[C@@H](C)N4Cc5cc(N[C@H]6CNC[C@H]6F)ccc5[C@H]4C3)ccc(C#N)c2n1 [Example 91, 5-[(4R,10bS)-8-[[(3S,4R)-4-fluoropyrrolidin-3-yl]amino]-4-methyl-3,4,6,10b-tetrahydro-1H-pyrazino[2,1-a]isoindol-2-yl]-2-deuterio-quinoline-8-carbonitrile]
